Laboratory results published in US6444692B1, “Fungicidal mixtures” (BASF Aktiengesellschaft, priority 1997, dated 2002).

System: powdery mildew of wheat (Erysiphe graminis forma specialis tritici)
Assay: Activity against powdery mildew of wheat (protective spray on wheat seedlings, visual % infection of leaf area after 7 days)
Type: in vivo
Conditions: single active ingredient, wheat seedlings cv. Frühgold
Source text: The active ingredients, separately or together, are formulated as a 10% emulsion in a mixture of 70% by weight of cyclohexanone, 20% by weight of Nekanil® LN (Lutensol® AP6, wetting agent having emulsifying and dispersing action, based on ethoxylated alkylphenols) and 10% by weight of Emulphor® EL (Emulan® EL, emulsifier based on ethoxylated fatty alcohols) and diluted with water to give the desired concentration.
Leaves of wheat seedlings cv. “Frühgold” which had been grown in pots were sprayed to runoff point with an aqueous preparation of active ingredient which had been prepared from a stock solution comprising 10% of active ingredient, 63% of cyclohexanone and 27% of emulsifier and, 24 hours after the spray coating had dried on, dusted with spores of powdery mildew of wheat (Erysiphe graminis forma specialis tritici). The test plants were subsequently placed in a greenhouse at from […] and a relative atmospheric humidity of 60 to 90%. After 7 days, the extent of mildew development was determined visually as % infection of the total leaf area.
Evaluation is carried out by determining the infected leaf areas in percent. These percentages are converted into efficacies. The expected efficacies of the mixtures of the active ingredients are determined using Colby's formula [R. S. Colby, Weeds 15, 20-22 (1967)] and compared with the observed efficacies. […]
The efficacy (E) is calculated as follows using Abbot's formula: […]
α corresponds to the fungal infection of the treated plants in % and
β corresponds to the fungal infection of the untreated (control) plants in %
An efficacy of 0 means that the infection level of the treated plants corresponds to that of the untreated control plants; an efficacy of 100 means that the treated plants were not infected.

SMILES | Efficacy in % of the untreated control (0.125 ppm in the spray liquor) [%] | Efficacy in % of the untreated control (0.5 ppm in the spray liquor) [%]
CO/N=C(\C(=O)OC)c1ccccc1COc1ccccc1C [Compound II] | 0 | 
CNC(=O)/C(=N\OC)c1ccccc1COc1cc(C)ccc1C [Compound III] | 20 | 
COC(=O)N(OC)c1ccccc1COc1ccn(-c2ccc(Cl)cc2)n1 [Compound I.32] | 0 | 10
